Experimental findings from PubChem BioAssay (NCI) are described below.

The structures appear in SMILES notation.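 In this assay, cells in 96-well plates receive the compound at five concentrations for 48 hours. Endpoints are linearly interpolated between the surrounding concentrations. At the GI50, growth is halved. The concentration for full growth arrest is given as TGI.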

Among the test systems are M19-MEL melanoma; P388/ADR leukemia; SN12K1 renal; MDA-MB-435; DU-145 prostate; MDA-N; RXF-631 renal; LXFL 529 NSCLC.
Holding throughout (assay): NCI tumour cell line growth inhibition, 48 h

Take `CC12CCC(CC1)C(C)(C)O2`: the TGI is 64.5 µM with M19-MEL melanoma, 42.6 µM with P388/ADR leukemia and 110 µM with SN12K1 renal.
Regarding `COc1ccc(-c2c(-c3ccccc3)c(C)nc3nc(SC)nc(SC)c23)cc1OC`, the TGI with MDA-MB-435, in the test with DU-145 prostate and with MDA-N was > 100 µM in each case.
As to `O=C(O)/C=C/c1c[nH]c(=O)[nH]c1=O`, the TGI in the test with M19-MEL melanoma, with P388/ADR leukemia and in the test on SN12K1 renal was > 500 µM each time.
For the compound `C=C1C(=O)OC2CC(C)C3C4OC4C(O)C3(C)C(O)C12` (configuration not stated), the results for the TGI with M19-MEL melanoma, with P388/ADR leukemia and in the test with SN12K1 renal were 69.7 µM, 49.3 µM and 70.8 µM, respectively.
In the case of `C=C=CC(NC(=O)c1ccccc1)(C(=O)O)C(F)(F)F` (configuration not stated), the TGI in the test with RXF-631 renal and with LXFL 529 NSCLC was > 100 µM throughout.
As for `O=C1/C(=C/c2ccc(O)cc2)COc2ccc(O)c(O)c21`, in the test on MDA-MB-435, the GI50 is 2.03 µM and the TGI came to 4.91 µM. In addition, in the test with DU-145 prostate, the GI50 was 2.19 µM and the TGI was determined as 5.69 µM.
Regarding `CCCCOP(C)(=O)C(NC(=O)OCC)(C(F)(F)F)C(F)(F)F` (configuration not stated), the TGI with MDA-MB-435, in the test on DU-145 prostate and with MDA-N was > 100 µM throughout.
With `Cc1cccc(N2C(=O)C3c4[nH]c5ccc(C)cc5c4C4CCC(C(C)(C)C)CC4C3C2=O)c1` (configuration not stated), the values for the TGI in the test on MDA-MB-435 and in the test on DU-145 prostate were > 100 µM and 38.7 µM, respectively.
For the compound `CCCCCCCCCCCCCC[n+]1ccc(C)cc1`, the GI50 was 0.638 µM with MDA-MB-435 and 0.608 µM in the test on DU-145 prostate. The figures for the TGI in the test on MDA-MB-435 and in the test on DU-145 prostate were 2.16 µM and 1.83 µM, respectively.
